Test results taken from the CheMixHub viscosity set.

Experiment: xn = mol fraction of the nth substance listed

CCCCCCCCCC(=O)O + CC(C)[C@@H]1CC[C@@H](C)C[C@H]1O
viscosity [mPa·s]
Details	293.15 K	298 K	298.15 K	303.15 K	308.15 K	313.15 K	318.15 K	323.15 K
100 kPa, x1 = 0.333	28.37	–	21.15	16.15	12.59	10	8.08	6.63
100 kPa, x1 = 0.4	24.68	–	18.85	14.7	11.68	9.43	7.73	6.42
100 kPa, x1 = 0.5	22	–	17.5	13.5	11	9	7.5	6.3
101 kPa, x2 = 0.333	–	16.3	–	–	–	–	–	–

c1c[nH]cn1 + c1ccccc1
viscosity [mPa·s], 101 kPa
Details	x1 = 0.003214	x1 = 0.006433	x1 = 0.01278	x1 = 0.03561	x1 = 0.03951
303.15 K	0.57	0.578	0.595	–	–
323.15 K	–	–	0.457	0.505	0.513

c1ccncc1 + OCC(O)CO
101 kPa
Details	viscosity [mPa·s]
298.15 K, x1 = 0.6001	17.25
298.15 K, x1 = 0.8001	3.155
303.15 K, x1 = 0.4	66.75
308.15 K, x1 = 0.1	275.5
313.15 K, x1 = 0.2001	116.5
313.15 K, x1 = 0.4	36.35

NCCNCCNCCN + CC(C)(N)CO
viscosity [mPa·s], 101 kPa
Details	x1 = 0.0971	x1 = 0.2071	x1 = 0.289	x1 = 0.3787	x1 = 0.4776	x1 = 0.5872	x1 = 0.7092	x1 = 0.8458	x1 = 0.9205
303.15 K	93.54	86.24	80.73	74.33	67.05	58.76	49.22	38.21	32.14
313.15 K	45.15	42.38	40.21	37.61	34.58	30.81	26.45	21.3	18.55
323.15 K	23.64	22.83	22.02	20.95	19.54	17.81	15.76	13.05	11.61

CC(O)CCO (stereo not given) + CN1CCCC1=O
308.15 K, 101 kPa
Details	viscosity [mPa·s]
x1 = 0.0282	1.736
x1 = 0.0582	1.864
x1 = 0.1089	2.153
x1 = 0.2015	2.678
x1 = 0.3004	3.197
x1 = 0.4043	4.211
x1 = 0.4985	6.742
x1 = 0.5972	9.628
x1 = 0.7036	14.66
x1 = 0.798	22.77
x1 = 0.9029	34.77
x1 = 0.94	43.52
x1 = 0.9796	51.25

c1ccncc1 + CC(O)CO
101 kPa
Details	viscosity [mPa·s]
293.15 K, x1 = 0.2999	15.55
303.15 K, x1 = 0.8	1.425
308.15 K, x1 = 0.7001	1.795
318.15 K, x1 = 0.4	3.855

c1ccncc1 + Cc1cccc(C)c1
viscosity [mPa·s], 101 kPa
Details	x2 = 0.1993	x2 = 0.2997	x2 = 0.3994	x2 = 0.524	x2 = 0.5987	x2 = 0.7003	x2 = 0.7968	x2 = 0.8972
293.15 K	0.8031	0.7468	0.7151	0.6612	0.6415	0.6114	0.59	0.5649
303.15 K	0.7062	0.6592	0.6241	0.5859	0.5687	0.547	0.5279	0.5097
313.15 K	0.6189	0.5815	0.5504	0.5173	0.5023	0.4843	0.4668	0.4544
323.15 K	0.5442	0.5118	0.4851	0.4563	0.4433	0.428	0.4122	0.4019

c1ccncc1 + CCC(C)=O
100 kPa
Details	viscosity [mPa·s]
308.15 K, x1 = 0.1006	0.3835
313.15 K, x1 = 0.597	0.5265
323.15 K, x1 = 0.4004	0.4095

c1c[nH]cn1 + O=C1CCCCCN1
101 kPa, x2 = 0.5
Details	viscosity [mPa·s]
303.2 K	49.07
313.1 K	25
323.1 K	16.2

COCCn1cc[n+](C)c1.C[C@@H](O)[C@H](N)C(=O)[O-] + O
100 kPa, x2 = 0.6192
Details	viscosity [mPa·s]
298.15 K	766.5
303.15 K	499.5

CC(=O)[O-].C[N+](C)(C)CCO + O
Details	viscosity [mPa·s]
298 K, 101.33 kPa, x2 = 0.8	30.5

Cl.NNC(N)=O + O
viscosity [mPa·s], 101 kPa
Details	293.15 K	298.15 K	303.15 K	308.15 K	313.15 K	318.15 K
x1 = 0.000452	1.008	0.8953	0.8016	0.7228	–	0.6
x1 = 0.000904	1.014	0.9003	0.8058	0.7263	0.6589	0.6026
x1 = 0.00135	–	0.9052	0.81	0.7299	0.6619	0.6051
x1 = 0.001798	–	0.9101	0.8142	–	–	0.6077
x1 = 0.002249	–	0.915	0.8183	0.737	0.6679	0.6102
x1 = 0.00269	1.037	0.9199	0.8224	0.7404	0.6708	0.6127
x1 = 0.003585	1.049	0.9296	0.8306	0.7475	0.6767	0.6176
x1 = 0.004482	1.06	0.9395	0.8389	0.7543	0.6826	0.6226
x1 = 0.005372	1.072	0.9492	0.8472	0.7612	0.6884	0.6275
x1 = 0.006264	1.083	0.959	0.8554	0.7682	0.6944	0.6324
x1 = 0.007149	1.095	0.9687	0.8637	0.775	0.7001	0.6373

CC(O)CCO (stereo not given) + O=C1CCCN1
Details	viscosity [mPa·s]
308.15 K, 101 kPa, x2 = 0.7935	11.85

CCCCCCCCCC(=O)O + CCCCCCCCCCCCCC
100 kPa, x2 = 0.8601
Details	viscosity [mPa·s]
298.2 K	2.37
308.2 K	1.9
318.2 K	1.54

c1ccncc1 + CCCCn1cc[n+](C)c1.F[B-](F)(F)F
Details	viscosity [mPa·s]
298.15 K, 101 kPa, x1 = 0.1059	81.9

c1ccncc1 + Cc1ccc(C)cc1
viscosity [mPa·s], 101 kPa
Details	x2 = 0.0992	x2 = 0.1993	x2 = 0.2987	x2 = 0.3993	x2 = 0.4949	x2 = 0.6001	x2 = 0.6997	x2 = 0.7994	x2 = 0.8981
293.15 K	0.8699	0.8193	0.7862	0.7311	0.6964	0.6582	0.6345	0.6152	0.5919
303.15 K	0.7603	0.7165	0.6902	0.6422	0.6139	0.5868	0.5656	0.5475	0.5316
313.15 K	0.6704	0.6302	0.6051	0.565	0.5399	0.5172	0.4986	0.4819	0.4686
323.15 K	0.5894	0.5534	0.5296	0.496	0.4742	0.4548	0.4385	0.4238	0.4123
